In patent US10913757B2, “Hydroxycinnamic derivatives, methods and uses thereof” (UNIVERSIDADE DO PORTO, priority 2016, dated 2021):
pIC50: −log10 of the molar value.

Key:
[1] = DPPH radical scavenging activity (TAC assay); format: biochemical; details: ethanol, absorbance 515 nm
Source text: In an embodiment, the AntiOxCINs antioxidant ranking activity hierarchy was established by in vitro non-cell methods. The selected total antioxidant capacity (TAC) assays (DPPH, ABTS and GO) involved the spectrophotometric measurement of the radical absorbance decrease as a result of an in situ radical deactivation by an antioxidant. Compounds with higher antioxidant activity display lower IC50 values. […] This decrease was attenuated/ameliorated by the increment of the spacer length and/or the introduction of additional hydroxyl group in the aromatic ring.
The radical scavenging activity of AntiOxCINs was evaluated by means of total antioxidant capacity assays based on DPPH., ABTS.^+ and GO. radicals. All these methods involved the spectrophotometric measurement of the absorbance decrease resulting from radical (DPPH., ABTS.^+ or GO.) deactivation with an antioxidant. The results were expressed in IC50, which is defined as the minimum antioxidant concentration necessary to reduce the amount of radical by 50%. Antioxidant assays were performed in a multiplate reader (Powerwave XS Microplate Reader) of Bio-Tech instruments.
In an embodiment, the DPPH. radical scavenging activity was performed as follows: solutions of the test compounds with increasing concentrations (range between 0 μM and 500 μM) were prepared in ethanol. A DPPH′ ethanolic solution (6.85 mM) was also prepared and then diluted to reach the absorbance of 0.72±0.02 at 515 nm. Each compound solution (20 μL) was added to 180 μL of DPPH′ solution in triplicate, and the absorbance at 515 nm was recorded minutely over 45 minutes. […] Dose-response curves were established for the determination of IC50 values. Data are means±SEM of three independent experiments.

[2] = Lipophilic properties by electrochemistry at ITIES (transfer potential); format: physicochemical; details: aqueous phase to 1,6-dichlorohexane, DPV, C=0.32 mM
Protocol: In an embodiment, AntiOxCINs lipophilic properties were evaluated at physiological pH by electrochemistry. The used technique is often used to mimic the transfer of ionic drugs through biological membranes as the process occurs at the interface between two immiscible electrolyte solutions (ITIES). The transfer potential (Etr) at which the ionic drug, initially present in the aqueous phase (C=0.32 mM), is transferred to the 1,6-dichlorohexane (DCH) phase is measured by differential pulse voltammetry (DPV). In the ITIES model, the transfer potential (Etr) becomes less positive with the increasing of the drug lipophilic character.
In an embodiment, the electrochemical analytical data was obtained using a computer controlled potentiostat Autolab PGSTAT302N (Metrohm Autolab, Utrecht, Netherlands). Generally, cyclic voltammetry (CV) data was acquired at a scan rate of 50 mVs^−1. Differential pulse voltammetry (DPV) results were acquired at a step potential of 4 mV, pulse amplitude of 50 mV and scan rate of 8 mVs^−1. The electrochemical signals were monitored by the General Purpose Electrochemical System (GPES) version 4.9, software package. All electrochemical experiments were performed at room temperature in an electrochemical cell that was placed in a Faraday cage in order to minimize the contribution of background noise to the analytical signal.
In an embodiment, the process of evaluation of AntiOxCINs redox properties was conducted as follows: stock solutions of each compound (10 mM) were prepared by dissolving the appropriate amount in ethanol. The voltammetric working solutions were prepared in the electrochemical cell, at a final concentration of 0.1 mM. The […] supporting electrolyte was prepared by diluting […] to 100 mL. Voltammetric data was acquired in a three-electrode system consisting of a glassy carbon electrode (GCE, d=2 mm) as working electrode, a counter electrode of platinum wire and a saturated Ag/AgCl reference electrode. In an embodiment, the evaluation of AntiOxCINs lipophilic properties was performed as follows: the electrochemical cell was a four-electrode system with arrays of micro liquid-liquid interfaces (μlTIES) containing two Ag/AgCl reference electrodes and two counter electrodes of Pt, one in each phase. The microporous membrane was sealed with a fluorosilicone sealant (Dow Corning 730) onto a glass cylinder which was filled with 4.0 mL of the aqueous phase, where the aliquots of AntiOxCINs solutions were added. The membrane was then immersed into the organic phase contained in the cell. The organic phase reference solution (a 2 mM BTPPACI+2 mM NaCl aqueous solution) was mechanically stabilized The aqueous supporting electrolyte solution was a Tris-HCl buffer 10 mM pH 7.0.

[3] = system: rat liver mitochondria (RLM); test: Mitochondrial respiration of isolated RLM (Clark-type oxygen electrode); format: biochemical; details: for effect on state 3 respiration: all tested concentrations (2.5-10 μM), FIG. 6B-H
Protocol: In an embodiment, and as an example, AntiOxCINs and MitoQ toxicity effects on the mitochondrial bioenergetics, namely on RLM ΔΨ and mitochondrial respiration parameters, were measured. The […] represents the main component of the electrochemical gradient generated by mitochondrial respiration and accounts for more than 90% of the total available energy. For mitochondrial respiration assays, glutamate/malate (for complex I) and succinate (for complex II) were used as substrates. In addition, the mitochondrial oxidative phosphorylation coupling index, known as respiratory control ratio (RCR, state 3/state 4 respiration) and ADP/O index (the coupling between ATP synthesis and oxygen consumption) were also calculated. AntiOxCINs and MitoQ were tested at antioxidant-relevant concentrations, with 10 μM being the highest concentration.
In an embodiment, the evaluation of AntiOxCINs functional mitochondrial toxicity profile was performed in rat liver mitochondria (RLM). […] The protein concentration was determined by the biuret assay using BSA as a standard.
In an embodiment, the evaluation of AntiOxCINs effect on mitochondrial respiration was performed as follows: the respiration of isolated RLM was evaluated polarographically with a Clark-type oxygen electrode, connected to a suitable recorder in a 1 mL thermostated water-jacketed chamber with magnetic stirring, at 37° C.^1. […] Increasing concentrations of AntiOxCINs (2.5-10 μM) were added to the reaction medium containing respiratory substrates glutamate/malate (10 mM and 5 mM respectively) or succinate (5 mM) and RLM (1 mg) and allowed to incubate for a 5 min period prior to the assay. State 2 was considered as the respiration during the 5 min incubation time with AntiOxCINs. […] State 4 was determined after ADP phosphorylation finished. Subsequent addition of oligomycin (2 μg/ml) inhibited ATP-synthase and originated the oligomycin-inhibition respiration state. Finally, 1 μM FCCP was added to induce uncoupled respiration.

Row | SMILES | pIC50 [1] | Etr (transfer potential) [2] | effect on state 3 respiration [3] | ADP/O ([3]; glutamate/malate, 2.5 μM) | RCR (respiratory control ratio, state 3/state 4) ([3]; glutamate/malate, 2.5 μM) | ADP/O ([3]; glutamate/malate, 5 μM) | RCR (respiratory control ratio, state 3/state 4) ([3]; glutamate/malate, 5 μM) | ADP/O ([3]; glutamate/malate, 10 μM) | RCR (respiratory control ratio, state 3/state 4) ([3]; glutamate/malate, 10 μM) | ADP/O ([3]; succinate, 2.5 μM) | RCR (respiratory control ratio, state 3/state 4) ([3]; succinate, 2.5 μM) | ADP/O ([3]; succinate, 5 μM) | RCR (respiratory control ratio, state 3/state 4) ([3]; succinate, 5 μM) | ADP/O ([3]; succinate, 10 μM) | RCR (respiratory control ratio, state 3/state 4) ([3]; succinate, 10 μM) | toxicity toward the mitochondrial bioenergetic apparatus ([3]; RLM)
1 | CS(=O)(=O)[O-].O=C(/C=C/c1ccc(O)c(O)c1)NCCCCCC[P+](c1ccccc1)(c1ccccc1)c1ccccc1 [AntiOxCIN2, (E)-(6-(3-(3,4-dihydroxyphenyl)prop-2-enamido)hexyl)triphenylphosphonium methanesulfonate] | 4.53 | 0.396 V | decrease | 2.4 ± 0.04 | 5.2 ± 1.0 | 2.2 ± 0.1 | 3.9 ± 0.6 | 2.2 ± 0.1 | 3.4 ± 0.3 | 1.4 ± 0.1 | 3.3 ± 0.2 | 1.3 ± 0.1 | 3.3 ± 0.2 | 1.1 ± 0.1 | 2.1 ± 0.2 | –
2 | CS(=O)(=O)[O-].O=C(/C=C/c1ccc(O)c(O)c1)NCCCCCCCC[P+](c1ccccc1)(c1ccccc1)c1ccccc1 [AntiOxCIN3, (E)-(8-(3-(3,4-dihydroxyphenyl)acrylamido)octyl)triphenylphosphoniummethanesulfonate] | 4.55 | 0.345 V | increase | 2.4 ± 0.2 | 3.8 ± 0.5 | 2.7 ± 0.2 | 3.5 ± 0.5 | 2.4 ± 0.1 | 3.3 ± 0.3 | 1.6 ± 0.1 | 4.1 ± 0.5 | 1.8 ± 0.3 | 4.7 ± 0.7 | 1.6 ± 0.1 | 3.9 ± 0.6 | –
3 | CS(=O)(=O)[O-].O=C(/C=C/c1cc(O)c(O)c(O)c1)NCCCCCC[P+](c1ccccc1)(c1ccccc1)c1ccccc1 [AntiOxCIN4, (E)-(6-(3-(3,4,5-trihydroxyphenyl)prop-2-enamido)hexyl)triphenylphosphonium methanesulfonate] | 4.72 | 0.498 V | decrease | 2.4 ± 0.1 | 5.3 ± 0.8 | 2.2 ± 0.1 | 4.3 ± 0.7 | 2.2 ± 0.1 | 3.5 ± 0.5 | 1.4 ± 0.1 | 3.4 ± 0.3 | 1.3 ± 0.1 | 3.0 ± 0.34 | 1.3 ± 0.02 | 2.7 ± 0.4 | –
4 | CS(=O)(=O)[O-].O=C(/C=C/c1cc(O)c(O)c(O)c1)NCCCCCCCC[P+](c1ccccc1)(c1ccccc1)c1ccccc1 [AntiOxCIN5, (E)-(8-(3-(3,4,5-trihydroxyphenyl)acrylamido)octyl)triphenylphosphonium methanesulfonate] | 4.83 | 0.423 V | increase | 2.4 ± 0.1 | 3.7 ± 0.4 | 2.5 ± 0.1 | 3.7 ± 0.4 | 2.5 ± 0.1 | 3.2 ± 0.1 | 1.6 ± 0.1 | 4.2 ± 0.4 | 1.5 ± 0.1 | 4.4 ± 0.8 | 1.6 ± 0.1 | 4.0 ± 0.8 | –
5 | CS(=O)(=O)[O-].O=C(/C=C/c1ccc(O)c(O)c1)NCCCCCCCCCC[P+](c1ccccc1)(c1ccccc1)c1ccccc1 [AntiOxCIN6, (E)-(10-(3-(3,4-dihydroxyphenyl)acrylamido)decyl)triphenylphosphonium methanesulfonate] | 4.59 | 0.291 V | increase | 2.5 ± 0.1 | 3.1 ± 0.3 | 2.5 ± 0.2 | 3.3 ± 0.2 | 2.3 ± 0.1 | 2.6 ± 0.1 | 1.5 ± 0.1 | 3.7 ± 0.6 | 1.5 ± 0.1 | 3.2 ± 0.3 | 1.6 ± 0.11 | 2.6 ± 0.3 | –
6 | CS(=O)(=O)[O-].O=C(/C=C/c1cc(O)c(O)c(O)c1)NCCCCCCCCCC[P+](c1ccccc1)(c1ccccc1)c1ccccc1 [AntiOxCIN7, (E)-(10-(3-(3,4,5-trihydroxyphenyl)acrylamido)decyl)triphenylphosphonium methanesulfonate] | 4.86 | 0.377 V | increase | 2.8 ± 0.3 | 3.6 ± 0.2 | 2.4 ± 0.1 | 3.5 ± 0.3 | 2.6 ± 0.1 | 3.3 ± 0.3 | 1.8 ± 0.2 | 4.1 ± 0.4 | 1.8 ± 0.2 | 3.1 ± 0.2 | 1.7 ± 0.2 | 3.7 ± 0.3 | –
7 | O=C(O)/C=C/c1ccc(O)c(O)c1 [Caffeic acid, caffeic acid, reference compound] | 4.74 | – | – | – | – | – | – | – | – | – | – | – | – | – | – | low toxicity
